Results from patent US20140005177A1, “PYRIDINYL- AND PYRAZINYL-METHYLOXY-ARYL DERIVATIVES USEFUL AS INHIBITORS OF SPLEEN TYROSINE KINASE (SYK)” (GLAXO GROUP LIMITED, priority 2011, published 2014).

Experiments:
[1] = test system: Ramos B cells; assay: Ramos pErk assay (anti-IgM stimulated B cells, pErk MSD); format: cell-based; details: Homo sapiens, Ramos, anti-IgM 5 μg/ml, pErk readout, read-out: average pIC50 (converted)
Procedure: Ramos B cells (human B cells of Burkitt's Lymphoma) are stimulated using anti-IgM. […] The subsequent autophosphorylation of Syk leads to initiation of a signalling cascade resulting in B cell activation via the Erk MAP Kinase pathway. As a result Erk is phosphorylated and following cell lysis is detected by an immune capture assay.
Cells were plated at a density of 2.5×10^5/well in a volume of 25 μl assay medium (RPMI containing 10% heat inactivated foetal calf serum, 1% L-glutamine) in 96 v-well polypropylene plates. 25 μl appropriately diluted compound solution was added and the plate incubated for 30 min at 37° C. with 5% CO2. Cells were stimulated with 5 μl Fab′2 fragments of goat anti-human IgM (5 μg/ml final) for 7 min at 37° C. Cells are lysed by the addition of 55 μL 2×RIPA lysis buffer for 2 h at 4° C. Lysate may be frozen at this point at −80° C.
50 μl cell lysate was transferred to a 96 well MSD plate coated with anti-pErk1/2 (Thr/Tyr: 202/204; 185/187) capture antibody and incubated for 16 hours at 4° C. or 3 hours at room temperature. The plate was washed and an anti-pErk detection antibody added (25 μl/well) for 1 hour at room temperature. This was removed, 150 μL MSD read buffer added and the resultant electrochemiluminescence signal measured.
Compound was prepared as a 10 mM stock in DMSO and a dilution series prepared in DMSO using 9 successive 5-fold dilutions. This dilution series was diluted a further 1:100 with assay medium to give the final concentration range to be tested of 5×10^−5 to 2.56×10^−11M. Compound dilutions were prepared using the Biomek 2000 and Biomek Nx automated robotic pipetting systems.

[2] = dosed intranasally, phase I/II, allergic rhinitis; cited from earlier work
[3] = further phase II clinical trial, allergic rhinitis; cited from earlier work
[4] = cited from earlier work
[5] = test system: B lymphoma (BKS-2); details: murine BKS-2 B lymphoma model; cited from earlier work

Cc1ccnc(COc2ccc(C(=O)N(C)C)cc2-c2ccc3c(c2)CNCC3)c1 [Example 41, N,N-dimethyl-4-{[(4-methyl-2-pyridinyl)methyl]oxy}-3-(1,2,3,4-tetrahydro-7-isoquinolinyl)benzamide]
IC50 [1]: 0.158 to 6.31 µM

Cc1ccnc(COc2ccc(Cl)cc2-c2ccc3c(c2)CCNCC3)c1 [Example 45, 7-(5-chloro-2-{[(4-methyl-2-pyridinyl)methyl]oxy}phenyl)-2,3,4,5-tetrahydro-1H-3-benzazepine]
IC50 [1]: 0.158 to 6.31 µM

Clc1ccc(OCc2ccccn2)c(-c2ccc3c(c2)CNCC3)c1 [Example 46, 7-{5-chloro-2-[(2-pyridinylmethyl)oxy]phenyl}-1,2,3,4-tetrahydroisoquinoline]
IC50 [1]: 0.158 to 6.31 µM

Cc1ccnc(COc2ccc(Cl)nc2-c2ccc3c(c2)CCNCC3)c1 [Example 48, 7-(6-chloro-3-{[(4-methyl-2-pyridinyl)methyl]oxy}-2-pyridinyl)-2,3,4,5-tetrahydro-1H-3-benzazepine]
IC50 [1]: 0.158 to 6.31 µM

Cc1ccnc(COc2ccc(Cl)nc2-c2ccc3c(c2)CNCC3)c1 [Example 49, 7-(6-chloro-3-{[(4-methyl-2-pyridinyl)methyl]oxy}-2-pyridinyl)-1,2,3,4-tetrahydroisoquinoline]
IC50 [1]: 0.158 to 6.31 µM

Oc1cccc(Nc2ncc(F)c(Nc3cccc(O)c3)n2)c1 [Example R112]
PGD2 [2]: statistically significant decrease | clinical safety [2]: safe across a range of indicators | efficacy versus placebo [3]: lack of efficacy versus placebo

COc1cc(Nc2ncc(F)c(Nc3ccc4c(n3)N(COP(=O)(O)O)C(=O)C(C)(C)O4)n2)cc(OC)c1OC [Example R788, fostamatinib disodium]
therapeutic effect ([4]; patients with DLBCL and CLL/SLL): therapeutic benefit | tolerability ([4]; patients with relapsed or refractory B-Cell NHL): well-tolerated

COc1cc(/C=C/C(=O)CC(=O)/C=C/c2ccc(O)c(OC)c2)ccc1O [curcumin]
tumour burden as measured by the total splenocyte number [5]: significant reduction of tumour burden
